{
  "source": "paper PMC12077208",
  "about": "(mBio, 2025)",
  "key": {"SARS-CoV-2": {"system": "SARS-CoV-2", "details": "cited from earlier work"}, "lung cancer cell": {"system": "lung cancer cell", "details": "through targeting G3BP1; cited from earlier work"}, "NTF2L domain of G3BP1 [1]": {"system": "NTF2L domain of G3BP1", "test": "SEC-MALS of peptide–NTF2L complexes", "type": "physicochemical, human", "details": "~2 mg/mL in PBS pH 7.4, Superdex 200 Increase 10/300 GL; for M.W., molecular weight of the peptide–NTF2L complex: 0.5 mL/min, value given in figure"}, "[2]": {"molecular_target": "T1, NTF2L domain of G3BP1 (residues 1–138) (Homo sapiens, UniProt Q13283)", "T1 construct": "6xHis tag with TEV protease cleavage site (N, cleaved yes); made in house; host or cells: Escherichia coli BL21 (DE3)", "T1 sequence (Q13283 1-138)": "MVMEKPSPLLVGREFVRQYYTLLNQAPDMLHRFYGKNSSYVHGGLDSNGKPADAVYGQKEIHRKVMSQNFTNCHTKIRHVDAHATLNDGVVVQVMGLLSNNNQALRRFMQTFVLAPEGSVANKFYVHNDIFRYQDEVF", "test": "Isothermal titration calorimetry (ITC) of peptides with NTF2L", "type": "binding", "details": "for n, molar ratio: 20°C"}, "endogenous G3BP1": {"system": "endogenous G3BP1", "test": "Co-immunoprecipitation with endogenous G3BP1 in HEK293T cells", "type": "cell-based", "details": "Co-IP, Flag magnetic beads, HEK293T cells lysed 36 h after transfection (3xFlag-mCherry constructs)", "protocol": "HEK293T cells were seeded into a six-well cell culture plate and then transfected with the recombinant plasmids using TransIntro PEI Transfection Reagent (TransGen Biotech, FT401-01). Thirty-six hours after transfection, the cells were lysed with cell lysis buffer (Beyotime, P0013J) supplemented with proteinase inhibitor phenylmethylsulfonyl fluoride (Solarbio, P8340). Cell lysates were then centrifuged, and the supernatants were immunoprecipitated with Flag magnetic beads (LABLEAD, PFM025). Beads were washed three times with washing buffer (50 mM Tris-HCl, 500 mM NaCl, 0.1% Triton X-100, 1 mM EDTA, pH 7.5). Cell lysates or immunoprecipitants were analyzed with immunoblotting.\nThe proteins were then transferred to polyvinylidene fluoride membranes. Membranes were blocked for 4 h with 5% non-fat dry milk solution in Tris-buffered saline containing 0.1% Tween-20 (TBST) and then incubated with primary antibodies mouse anti-G3BP1 (Santa Cruz, sc-365338), mouse anti-Flag (Proteintech, 66008-4-Ig), and rabbit anti-β-actin (Proteintech, 81115-1-RR) overnight at 4°C. The membranes were washed with TBST and then incubated with the corresponding secondary antibodies. Proteins were visualized by SuperKine West Femto Maximum Sensitivity Substrate according to the manufacturer’s instruction (Abbkine, BMU102)."}, "NTF2L domain of G3BP1 [3]": {"system": "NTF2L domain of G3BP1", "test": "Size-exclusion chromatography (SEC) of NTF2L incubated with peptide: high-order oligomer formation", "type": "binding, human", "details": "peptide mixed with NTF2L, incubated at 4°C overnight, Superdex 200 Increase 10/300 GL"}},
  "data": [
    {"smiles": "Nc1ncn([C@H]2C[C@H](O)[C@@H](CO)O2)c(=O)n1", "note": "[decitabine]", "values": [
      {"measurement": "inhibition of SARS-CoV-2 propagation", "setting": "SARS-CoV-2", "value": "inhibit SARS-CoV-2 propagation"}
    ]},
    {"smiles": "O=C(O[C@@H]1Cc2c(O)cc(O)cc2O[C@@H]1c1cc(O)c(O)c(O)c1)c1cc(O)c(O)c(O)c1", "note": "[Epigallocatechin gallate]", "values": [
      {"measurement": "effect on lung cancer cell growth", "setting": "lung cancer cell", "value": "inhibits lung cancer cell growth"}
    ]},
    {"smiles": "CC[C@H](C)[C@H](NC(=O)[C@H](CCC(=O)O)NC(=O)CNC(=O)[C@H](CC(=O)O)NC(=O)[C@H](CC(N)=O)NC(=O)[C@H](Cc1ccccc1)NC(=O)[C@H](CC(=O)O)NC(=O)CNC(=O)[C@H](Cc1ccccc1)NC(=O)[C@@H](NC(=O)[C@@H](NC(=O)[C@@H]1CCCN1C(=O)[C@H](Cc1ccccc1)NC(=O)[C@@H](NC(=O)[C@H](CCC(=O)O)NC(=O)[C@H](CO)NC(=O)CNC(=O)[C@H](CC(C)C)NC(=O)[C@@H]1CCCN1C(=O)CN)[C@@H](C)O)[C@@H](C)CC)[C@@H](C)O)C(=O)N[C@@H](CCC(=O)O)C(=O)N[C@@H](CO)C(=O)N[C@@H](CC(C)C)C(=O)N[C@@H](CO)C(=O)N[C@@H](CO)C(=O)N[C@@H](CCC(=O)O)C(=O)N[C@@H](CC(C)C)C(=O)N[C@@H](CC(C)C)C(=O)N[C@H](C(=O)N[C@@H](Cc1ccccc1)C(=O)NCC(=O)N[C@@H](CC(=O)O)C(=O)N[C@@H](Cc1ccccc1)C(=O)N[C@@H](CC(C)C)C(=O)N1CCC[C@H]1C(=O)NCC(=O)N[C@@H](C)C(=O)N[C@H](C(=O)N[C@@H](C)C(=O)N[C@@H](CC(=O)O)C(=O)N[C@@H](CC(C)C)C(=O)N[C@H](C(=O)N[C@@H](CC(=O)O)C(=O)N[C@@H](CO)C(=O)N[C@@H](CC(=O)O)C(=O)N[C@@H](Cc1c[nH]c2ccccc12)C(=O)N[C@@H](CO)C(=O)N[C@H](C(=O)N[C@@H](Cc1c[nH]cn1)C(=O)N[C@@H](Cc1c[nH]cn1)C(=O)N[C@@H](Cc1c[nH]cn1)C(=O)N[C@@H](Cc1c[nH]cn1)C(=O)N[C@@H](Cc1c[nH]cn1)C(=O)N[C@@H](Cc1c[nH]cn1)C(=O)O)[C@@H](C)O)[C@@H](C)O)C(C)C)[C@@H](C)O", "note": "[CHIKV-43 mut]", "values": [
      {"measurement": "M.W., molecular weight of the peptide–NTF2L complex", "setting": "NTF2L domain of G3BP1 [1]", "value": "58.7 ± 0.42", "unit": "kDa"},
      {"measurement": "n, molar ratio", "setting": "[2]; HEPES buffer pH 7.5, 200 µM peptide injected into 40 µM NTF2L", "value": "0.6 ± 0.02"},
      {"measurement": "fold reduction of binding affinity with NTF2L", "setting": "[2]; compared to that of CHIKV-43 with NTF2L", "value": "~ 15 fold"}
    ]},
    {"smiles": "CC[C@H](C)[C@H](NC(=O)[C@H](CCC(=O)O)NC(=O)CNC(=O)[C@H](CC(=O)O)NC(=O)[C@H](CC(N)=O)NC(=O)[C@H](Cc1ccccc1)NC(=O)[C@H](CC(=O)O)NC(=O)CNC(=O)[C@H](Cc1ccccc1)NC(=O)[C@@H](NC(=O)[C@@H](NC(=O)[C@@H]1CCCN1C(=O)[C@H](Cc1ccccc1)NC(=O)[C@@H](NC(=O)[C@H](CCC(=O)O)NC(=O)[C@H](CO)NC(=O)CNC(=O)[C@H](CC(C)C)NC(=O)[C@@H]1CCCN1C(=O)CN)[C@@H](C)O)[C@@H](C)CC)[C@@H](C)O)C(=O)N[C@@H](CCC(=O)O)C(=O)N[C@@H](CO)C(=O)N[C@@H](CC(C)C)C(=O)N[C@@H](CO)C(=O)N[C@@H](CO)C(=O)N[C@@H](CCC(=O)O)C(=O)N[C@@H](CC(C)C)C(=O)N[C@@H](CC(C)C)C(=O)N[C@H](C(=O)N[C@@H](Cc1ccccc1)C(=O)NCC(=O)N[C@@H](CC(=O)O)C(=O)N[C@@H](Cc1ccccc1)C(=O)N[C@@H](CC(C)C)C(=O)N1CCC[C@H]1C(=O)NCC(=O)N[C@@H](CCC(=O)O)C(=O)N[C@H](C(=O)N[C@@H](CC(=O)O)C(=O)N[C@@H](CC(=O)O)C(=O)N[C@@H](CC(C)C)C(=O)N[C@H](C(=O)N[C@@H](CC(=O)O)C(=O)N[C@@H](CO)C(=O)N[C@@H](CC(=O)O)C(=O)N[C@@H](Cc1c[nH]c2ccccc12)C(=O)N[C@@H](CO)C(=O)N[C@H](C(=O)N[C@@H](Cc1c[nH]cn1)C(=O)N[C@@H](Cc1c[nH]cn1)C(=O)N[C@@H](Cc1c[nH]cn1)C(=O)N[C@@H](Cc1c[nH]cn1)C(=O)N[C@@H](Cc1c[nH]cn1)C(=O)N[C@@H](Cc1c[nH]cn1)C(=O)O)[C@@H](C)O)[C@@H](C)O)C(C)C)[C@@H](C)O", "note": "[CHIKV-43]", "values": [
      {"measurement": "M.W., molecular weight of the peptide–NTF2L complex", "setting": "NTF2L domain of G3BP1 [1]", "value": "314.1 ± 0.28", "unit": "kDa"},
      {"measurement": "approximate M.W. of the peptide–NTF2L complex", "setting": "NTF2L domain of G3BP1 [1]; rounded value of text", "value": "approximately 310 kDa"},
      {"measurement": "interaction with endogenous G3BP1", "setting": "endogenous G3BP1", "value": "obviously interact with G3BP1"},
      {"measurement": "SEC peak / high-order oligomer formation with NTF2L", "setting": "NTF2L domain of G3BP1 [3]", "value": "formed a stable peak"},
      {"measurement": "n, molar ratio", "setting": "[2]; HEPES buffer pH 7.5, 50 µM peptide injected into 10 µM NTF2L", "value": "0.6 ± 0.002"}
    ]},
    {"smiles": "Cc1ccc(NC(=O)c2ccc(CN3CCN(C)CC3)cc2)cc1Nc1nccc(-c2cccnc2)n1", "note": "[imatinib]", "values": [
      {"measurement": "inhibition of SARS-CoV-2 propagation", "setting": "SARS-CoV-2", "value": "inhibit SARS-CoV-2 propagation"}
    ]}
  ]
}
